Where two headings read alike, the source gives them in different places.
Key:
[1] = biological target: recombinant human NF-kappaB-inducing kinase (NIK/MAP3K14) (Homo sapiens, UniProt Q99558); assay: Inhibition of auto-phosphorylation of recombinant human NIK/MAP3K14 activity (AlphaScreen), Biological Assay A; assay type: biochemical; conditions: averaged values over all measurements on all batches
Procedure, shortened: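 AlphaScreen detection with anti-phospho-IKK Ser176/180 antibody plus Protein A acceptor/glutathione donor beads after 1 h, 25 °C reaction of 0.2 nM GST-tagged kinase, 25 μM ATP and compound. Buffer: 50 mM Tris pH 7.5, MgCl2, EGTA, DTT, vanadate; 1% DMSO. IC50 fitted sigmoidally to % inhibition.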

[2] = test system: P-IKKα levels in L363 (NIK translocated multiple myeloma) cells; assay: Effect of compounds on P-IKKα levels in L363 cells (Mesoscale sandwich immuno-assay), Biological Assay B; assay type: cell-based, human; conditions: 2 hr treatment, averaged values, read-out: Inhibition of pIKKα_L-363 (IC50 (nM))
Procedure, shortened: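 P-IKKα in lysates quantified by Mesoscale sandwich immunoassay after 2 h compound exposure in 1% DMSO, duplicate wells, 8-point 1:3 series. Human L363 cells had been preincubated 24 h with BAFF (1 μg/ml stock). Blank (10 μM ADS125117) subtracted; IC50 fitted sigmoidally to % inhibition of control.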

[3] = test system: JJN-3 (NIK translocated) multiple myeloma cells; assay: Antiproliferative activity on JJN-3 multiple myeloma cells (CellTiter-Glo, 96 hr), Biological Assay C; assay type: cell-based, human; conditions: JJN-3 (NIK translocated) cells, averaged values, read-out: JJN-3 Proliferation inhibition (IC50 (nM))
Procedure, shortened: (§1)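 Growth read-out was CellTiter-Glo luminescence after 96 h compound exposure, given as percent of no-drug control after subtracting a blank of cells read at dosing. Compounds ran as 9-point serial 1:3 dilutions in 0.3% DMSO, duplicate wells, on JJN-3 (15000/well) or KMS12-BM (20000/well) cells in RPMI 1640/10% FCS.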

[4] = test system: KMS12-BM (NIK WT) multiple myeloma cells; assay: Antiproliferative activity on KMS12-BM multiple myeloma cells (CellTiter-Glo, 96 hr), Biological Assay C; assay type: cell-based, human; conditions: averaged values, read-out: KMS-12 Proliferation inhibition (IC50 (nM))
Procedure, shortened: as §1

Chain of recombinant human NF-kappaB-inducing kinase (NIK/MAP3K14) (Q99558 whole entry): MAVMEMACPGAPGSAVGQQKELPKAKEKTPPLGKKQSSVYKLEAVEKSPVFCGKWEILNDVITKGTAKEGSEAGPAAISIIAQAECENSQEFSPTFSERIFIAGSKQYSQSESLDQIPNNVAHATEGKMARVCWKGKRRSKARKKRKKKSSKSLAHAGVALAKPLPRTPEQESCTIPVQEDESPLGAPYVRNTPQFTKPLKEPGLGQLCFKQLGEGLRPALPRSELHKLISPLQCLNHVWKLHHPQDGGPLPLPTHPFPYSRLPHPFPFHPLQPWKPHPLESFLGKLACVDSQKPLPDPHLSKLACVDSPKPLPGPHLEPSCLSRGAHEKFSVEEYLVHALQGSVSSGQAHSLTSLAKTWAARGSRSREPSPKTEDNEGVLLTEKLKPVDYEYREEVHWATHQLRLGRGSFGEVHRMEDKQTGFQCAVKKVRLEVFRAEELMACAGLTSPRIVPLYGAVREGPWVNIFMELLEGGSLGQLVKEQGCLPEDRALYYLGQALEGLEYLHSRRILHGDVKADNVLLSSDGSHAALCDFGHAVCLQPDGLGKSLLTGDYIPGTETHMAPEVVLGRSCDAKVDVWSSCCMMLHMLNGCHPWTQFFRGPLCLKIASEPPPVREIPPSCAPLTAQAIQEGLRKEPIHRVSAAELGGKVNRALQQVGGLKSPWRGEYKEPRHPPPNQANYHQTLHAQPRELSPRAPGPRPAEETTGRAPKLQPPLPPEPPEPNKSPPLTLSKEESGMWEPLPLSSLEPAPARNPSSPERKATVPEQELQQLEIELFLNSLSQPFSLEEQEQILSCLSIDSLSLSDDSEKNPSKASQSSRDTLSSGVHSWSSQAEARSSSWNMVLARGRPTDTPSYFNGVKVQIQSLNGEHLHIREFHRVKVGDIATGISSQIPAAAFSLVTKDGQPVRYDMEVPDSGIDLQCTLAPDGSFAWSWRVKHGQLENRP

Which IC50 [1] does the source give for `Cc1ccc(C#N)cc1Nc1nccc(-c2cc(C#N)c3c(c2)[C@@](C)(COC(=O)CC(=O)O)CN3)n1` [Compound 142b] here?
Its IC50 is 17 nM.

What about the IC50 [2] of the same molecule?
Its IC50 is roughly 58.9 nM.

And the melting point?
The melting point was 214 °C.

And the IC50 [3]?
Its IC50 is 977 nM.

And the IC50 [4]?
Its IC50 is greater than 10000 nM.

Which IC50 [1] does the source give for `Cc1ccc(C#N)cc1Nc1nccc(-c2cc(C#N)c3c(c2)[C@@](C)(COS(=O)(=O)O)CN3)n1` [Compound 143] here?
Its IC50 is 6.5 nM.

What about the IC50 ([2]; Homo sapiens, L-363, 2 h) of the same molecule?
Its IC50 is 12.3 nM.

What about the melting point of the same molecule?
The melting point was greater than 270 °C.

And the IC50 ([3]; Homo sapiens, JJN-3, 96 h)?
The IC50 was 200 nM.

And the IC50 ([4]; Homo sapiens, KMS-12-BM, 96 h)?
The IC50 was greater than 10000 nM.

What does the source list for `Cc1ccc(C#N)cc1Nc1nccc(-c2cc(C#N)c3c(c2)[C@@](C)(COC(=O)CN2CCOCC2)CN3)n1` [Compound 146]?
IC50 [1]: 19.9 nM; IC50 ([2]; Homo sapiens, L-363, 2 h): 5.2 nM; melting point: 186 °C; IC50 ([3]; Homo sapiens, JJN-3, 96 h): 78 nM; IC50 ([4]; Homo sapiens, KMS-12-BM, 96 h): > 10000 nM

Which results are given for `CNC(=O)c1cc(Nc2nccc(-c3cc(C#N)c4c(c3)[C@@](C)(CO)CN4)n2)c(C)cc1F` [Compound 155]?
IC50 [1]: 3.5 nM; IC50 ([2]; Homo sapiens, L-363, 2 h): 7.7 nM; melting point: 218 °C; IC50 ([3]; Homo sapiens, JJN-3, 96 h): 467 nM; IC50 ([4]; Homo sapiens, KMS-12-BM, 96 h): > 10000 nM

For `CNC(=O)c1cc(Nc2nccc(-c3cc(C#N)c4c(c3)[C@@](C)(CO)CN4)n2)c(OC2CC2)cc1F` [Compound 156], which IC50 [1] is on record?
The IC50 was 4.8 nM.

And the IC50 ([2]; Homo sapiens, L-363, 2 h)?
Its IC50 is 7.8 nM.

What about the melting point of the same molecule?
Its melting point is 206 °C.

And the IC50 ([3]; Homo sapiens, JJN-3, 96 h)?
Its IC50 is 251 nM.

What about the IC50 ([4]; Homo sapiens, KMS-12-BM, 96 h) of the same molecule?
Its IC50 is greater than 10000 nM.

With `CNC(=O)c1cc(Nc2nccc(-c3cc(C#N)c4c(c3)[C@@](C)(CO)CN4)n2)c(F)cc1OC1CC1` [Compound 157] as the molecule, how does the IC50 [1] read?
The IC50 was 4.9 nM.

What about the IC50 ([2]; Homo sapiens, L-363, 2 h) of the same molecule?
Its IC50 is 12.9 nM.

And the melting point?
Its melting point is 235 °C.

And the IC50 ([3]; Homo sapiens, JJN-3, 96 h)?
Its IC50 is 178 nM.

What about the IC50 ([4]; Homo sapiens, KMS-12-BM, 96 h) of the same molecule?
Its IC50 is roughly 7590 nM.

For `Cc1ccc(C(=O)NCCN2CCOCC2)cc1Nc1nccc(-c2cc(C#N)c3c(c2)[C@@](C)(CO)CN3)n1` [Compound 159], which IC50 [1] is on record?
The IC50 was 5.5 nM.

And the IC50 ([2]; Homo sapiens, L-363, 2 h)?
The IC50 was 20.4 nM.

What about the melting point of the same molecule?
The melting point was 140 °C.

What about the IC50 ([3]; Homo sapiens, JJN-3, 96 h) of the same molecule?
Its IC50 is 4790 nM.

What about the IC50 ([4]; Homo sapiens, KMS-12-BM, 96 h) of the same molecule?
Its IC50 is greater than 10000 nM.

Which IC50 [1] does the source give for `Cc1ccc(C(=O)N(C)C)cc1Nc1nccc(-c2cc(C#N)c3c(c2)[C@@](C)(CO)CN3)n1` [Compound 160] here?
Its IC50 is 11.2 nM.

And the IC50 ([2]; Homo sapiens, L-363, 2 h)?
The IC50 was 64.6 nM.

What about the melting point of the same molecule?
The melting point was 206 °C.

And the IC50 ([3]; Homo sapiens, JJN-3, 96 h)?
The IC50 was 4790 nM.

What about the IC50 ([4]; Homo sapiens, KMS-12-BM, 96 h) of the same molecule?
The IC50 was greater than 10000 nM.

What does the source list for `CNC(=O)c1cc(Nc2nccc(-c3cc(C#N)c4c(c3)[C@@](C)(CO)CN4)n2)c(F)cc1F` [Compound 165]?
IC50 [1]: 3.6 nM; IC50 ([2]; Homo sapiens, L-363, 2 h): 6 nM; melting point: 224 °C; IC50 ([3]; Homo sapiens, JJN-3, 96 h): 1120 nM; IC50 ([4]; Homo sapiens, KMS-12-BM, 96 h): ~5250 nM

For `Cc1cc(CCCN)c(C#N)cc1Nc1nccc(-c2cc(C#N)c3c(c2)[C@@](C)(CO)CN3)n1` [Compound 170], which IC50 [1] is on record?
The IC50 was 1 nM.

What about the IC50 ([2]; Homo sapiens, L-363, 2 h) of the same molecule?
The IC50 was 2.3 nM.

And the melting point?
The melting point was 207 °C.

What about the IC50 ([3]; Homo sapiens, JJN-3, 96 h) of the same molecule?
The IC50 was 81 nM.

What about the IC50 ([4]; Homo sapiens, KMS-12-BM, 96 h) of the same molecule?
The IC50 was roughly 4680 nM.

Which IC50 [1] does the source give for `Cc1cc(C#CCN)c(C#N)cc1Nc1nccc(-c2cc(C#N)c3c(c2)[C@@](C)(CO)CN3)n1` [Compound 171] here?
The IC50 was 1.1 nM.

What about the IC50 ([2]; Homo sapiens, L-363, 2 h) of the same molecule?
Its IC50 is 34.7 nM.

What about the melting point of the same molecule?
The melting point was 249 °C.

And the IC50 ([3]; Homo sapiens, JJN-3, 96 h)?
Its IC50 is 955 nM.

And the IC50 ([4]; Homo sapiens, KMS-12-BM, 96 h)?
The IC50 was greater than 10000 nM.

Which IC50 [1] does the source give for `CCC(=O)NCCCc1cc(C)c(Nc2nccc(-c3cc(C#N)c4c(c3)[C@@](C)(CO)CN4)n2)cc1C#N` [Compound 172] here?
The IC50 was 4.8 nM.

What about the IC50 ([2]; Homo sapiens, L-363, 2 h) of the same molecule?
The IC50 was 2.4 nM.

And the melting point?
Its melting point is 193 °C.

And the IC50 ([3]; Homo sapiens, JJN-3, 96 h)?
The IC50 was 65 nM.

What about the IC50 ([4]; Homo sapiens, KMS-12-BM, 96 h) of the same molecule?
The IC50 was greater than 10000 nM.

For `Cc1cc(CCN2CC(F)C2)c(C#N)cc1Nc1nccc(-c2cc(C#N)c3c(c2)[C@@](C)(CO)CN3)n1` [Compound 174], which IC50 [1] is on record?
Its IC50 is 3.5 nM.

What about the IC50 ([2]; Homo sapiens, L-363, 2 h) of the same molecule?
The IC50 was 2 nM.

And the melting point?
Its melting point is 211 °C.

And the IC50 ([3]; Homo sapiens, JJN-3, 96 h)?
Its IC50 is 71 nM.

And the IC50 ([4]; Homo sapiens, KMS-12-BM, 96 h)?
The IC50 was greater than 10000 nM.

Which IC50 [1] does the source give for `Cc1cc(C2CCN(C)CC2)c(C#N)cc1Nc1nccc(-c2cc(C#N)c3c(c2)[C@@](C)(CO)CN3)n1` [Compound 175] here?
The IC50 was 1.8 nM.

What about the IC50 ([2]; Homo sapiens, L-363, 2 h) of the same molecule?
Its IC50 is 2.8 nM.

What about the melting point of the same molecule?
The melting point was 226 °C.

And the IC50 ([3]; Homo sapiens, JJN-3, 96 h)?
Its IC50 is 27 nM.

And the IC50 ([4]; Homo sapiens, KMS-12-BM, 96 h)?
Its IC50 is roughly 191 nM.

What does the source list for `Cc1cc(C2CCCN(C)C2)c(C#N)cc1Nc1nccc(-c2cc(C#N)c3c(c2)[C@@](C)(CO)CN3)n1` (stereo partly shown) [Compound 177]?
IC50 [1]: 3.2 nM; IC50 ([2]; Homo sapiens, L-363, 2 h): 1.2 nM; melting point: 222 °C; IC50 [3]: 14 nM; IC50 [4]: ~246 nM

Which IC50 [1] does the source give for `Cc1cc(C2CCCN(C)C2)c(C#N)cc1Nc1nccc(-c2cc(C#N)c3c(c2)[C@@](C)(CO)CN3)n1` (stereo partly shown) [Compound 179] here?
Its IC50 is 2.2 nM.

What about the IC50 [2] of the same molecule?
Its IC50 is 1.4 nM.

And the melting point?
Its melting point is 188 °C.

And the IC50 [3]?
The IC50 was 58 nM.

What about the IC50 [4] of the same molecule?
Its IC50 is 1290 nM.

With `Cc1cc(F)c(C(=O)NCC2COC2)cc1Nc1nccc(-c2cc(C#N)c3c(c2)[C@@](C)(CO)CN3)n1` [Compound 183] as the molecule, how does the IC50 [1] read?
Its IC50 is 9.1 nM.

What about the IC50 ([2]; Homo sapiens, L-363, 2 h) of the same molecule?
Its IC50 is 7.1 nM.

And the melting point?
The melting point was 209 °C.

And the IC50 ([3]; Homo sapiens, JJN-3, 96 h)?
The IC50 was 501 nM.

And the IC50 ([4]; Homo sapiens, KMS-12-BM, 96 h)?
Its IC50 is greater than 10000 nM.
